Results published in patent US9718770B2, “Substituted thioureas as heat shock protein 70 inhibitors” (Institute of Pharmacology and Toxicology Academy of …, priority 2013, dated 2017).

Legend:
BT474 = test: CDI of example compounds and Lapatinib (ATPlite cell survival); format: cell-based; design: key: CDI = AB/(A×B); <1 synergistic; conditions: compound 5 μM + Lapatinib 1 μM, 72 h; Lapatinib-sensitive human breast cancer cells; CDI<1 synergistic, <0.7 very significant, >1 antagonistic
Description: (§1) Cells: (BT474 and SK-BR3 are Lapatinib-sensitive human breast cancer cell strains; BT/LapR and SK/LapR are secondary Lapatinib-resistant human breast cancer cell strains upon Lapatinib stimulation; MDA-MB-361 and MDA-MB-453 are natural Lapatinib-resistant human breast cancer cell strains. BT474, MDA-MB-361, SK-BR3 and MDA-MB-453 are from American Type Culture Collection (ATCC))
(§2) In a 100 mm culture dish full of adherent cells, digestion with 1 ml 0.25% pancreatin (GIBCO) was carried out at 37° C. for 5 min, and the reaction was stopped with 2 ml medium (containing 10% FBS, GIBCO). The cells were dispersed and collected. After cell count, the cells were diluted to a concentration of 1×10^5 cells/ml, and were seeded to a 96-well plate at 50 μl/well, 5000 cell/well, 60 wells in total, PBS instead of cells was added to the wells of the outmost circle, and the incubation was carried out at 37° C. for 24 h for adherence.
(§3) For the sample group, samples to be tested were diluted with DMSO to a final concentration of 5 μM; to control wells, the medium containing the same concentration of solvent corresponding to the compound was added, the concentrations of the compounds were identical in each well, 5 wells in parallel were set for each concentration, 25 μL/well, and 25 μL medium was added to each well (for the combination group, 25 μL Lapatinib was added to reach a final concentration of 1 μM). The incubation was carried out at 37° C. for 72 h.
(§4) To each well, 50 μL ATPlite kit substrate solution was added. The plate was under shaking for 3 min, and was then placed in dark for 10 min. The lysis supernatant was drawn at 100 μL/well, and placed in a luminescent plate. The incubated luminescent plate was placed in an iluminescence apparatus, and the iluminescent value was read.
(§5) Data Processing Cell survival rate (%)=Experimental group RLU/control group RLU×100%
(§6) Coefficient of drug interaction (CDI) is used to evaluate the interaction of two drugs, CDI is calculated in accordance with the following formula: CDI=AB/(A×B)×100%. The calculation is performed according to the number of live cells (luminescent value), if CDI<1, the two drugs have a synergistic effect; if CDI<0.7, the synergistic effect is very significant; if CDI=1, the effect of the two drugs in combination is the sum of the effects of the two drugs; if CDI>1, the two drugs have an antagonistic effect.

MDA-MB-361 = test: as above; format: cell-based; design: key: CDI = AB/(A×B); <1 synergistic; conditions: compound 5 μM + Lapatinib 1 μM, 72 h; natural Lapatinib-resistant human breast cancer cells; CDI<1 synergistic
Description: as §1, §2, §3, §4, §5, §6

MDA-MB-453 = test: as above; format: cell-based; design: key: CDI = AB/(A×B); <1 synergistic; conditions: compound 5 μM + Lapatinib 1 μM, 72 h; natural Lapatinib-resistant human breast cancer cells; CDI<1 synergistic
Description: as §1, §2, §3, §4, §5, §6

SK-BR3 = test: as above; format: cell-based; design: key: CDI = AB/(A×B); <1 synergistic; conditions: compound 5 μM + Lapatinib 1 μM, 72 h; Lapatinib-sensitive human breast cancer cells; CDI<1 synergistic
Description: as §1, §2, §3, §4, §5, §6

BT/Lap^R1.0 = test: as above; format: cell-based; conditions: compound 5 μM + Lapatinib 1 μM, 72 h; secondary Lapatinib-resistant human breast cancer cells; CDI<1 synergistic
Description: as §1, §2, §3, §4, §5, §6

SK/Lap^R1.0 = test: as above; format: cell-based; conditions: compound 5 μM + Lapatinib 1 μM, 72 h; secondary Lapatinib-resistant human breast cancer cells; CDI<1 synergistic
Description: as §1, §2, §3, §4, §5, §6

Hsp70 ATPase = molecular target: T1, Hsp70 ATPase (Homo sapiens, UniProt P0DMV8); test: Inhibition of Hsp70 ATPase activity (malachite green); format: biochemical; conditions: 200 μM; repeated screening carried out twice; Hsp70/Hsp40, 1 mM ATP; read-out: Inhibitory rate (%) on activity of Hsp70 ATPase
T1 construct: made in house; host or cells: E. coli
T1 sequence (P0DMV8 2-641 limits assumed): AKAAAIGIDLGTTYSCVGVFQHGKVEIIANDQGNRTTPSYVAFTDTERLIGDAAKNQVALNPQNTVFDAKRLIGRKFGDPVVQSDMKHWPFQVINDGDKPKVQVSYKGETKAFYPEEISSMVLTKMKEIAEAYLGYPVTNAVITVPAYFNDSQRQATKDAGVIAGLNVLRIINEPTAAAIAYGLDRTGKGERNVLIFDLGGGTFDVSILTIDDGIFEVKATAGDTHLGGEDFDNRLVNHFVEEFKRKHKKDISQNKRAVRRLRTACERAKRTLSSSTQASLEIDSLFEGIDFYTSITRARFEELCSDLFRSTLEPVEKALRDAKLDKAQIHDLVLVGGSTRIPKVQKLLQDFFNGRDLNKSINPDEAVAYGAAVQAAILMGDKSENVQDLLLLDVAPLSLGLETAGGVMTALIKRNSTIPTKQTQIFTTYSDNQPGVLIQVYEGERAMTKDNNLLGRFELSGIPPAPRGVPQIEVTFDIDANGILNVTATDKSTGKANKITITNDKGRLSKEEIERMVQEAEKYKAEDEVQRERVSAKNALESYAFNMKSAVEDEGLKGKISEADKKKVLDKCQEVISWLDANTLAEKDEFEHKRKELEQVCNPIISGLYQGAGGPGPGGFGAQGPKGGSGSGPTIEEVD
Description: (1) Protein: Humanized Hsp70, Hsp40, expressed by E. coli.
(2) Sample to be tested: 26 compound solids with different colors and states. Positive drugs AZ (CAS:1054543-47-3) and VER 155008 (CAS: 1134156-31-2) were synthesized in the laboratory.
(4) ATPase Assay buffer: • 0.017% Triton X-100; • 100 mM Tris-HCl; • 20 mM KCl; • 6 mM MgCl2, pH 7.4.
1) 13.08 μl DnaK (0.15 mg/mL, 2.14 μM), 1.96 μl DnaJ (1 mg/mL, 25 μM) were dissolved in 7.96 μl Assay Buffer (0.017% Triton X-100, 100 mM Tris-HCl, 20 mM KCl, and 6 mM MgCl2, pH 7.4), and the resultant solution was added to each well of the 96 well plate;
2) to each well of the 96 well plate, 1 μL sample to be tested (5 mM) or DMSO (solvent) was added, and vortexed with a Vortex agitator for 10 min; and then standing at 37° C. for 30 min;
3) to each well, 1 μL 25 mM ATP was added, to trigger the enzymatic reaction; (in each well, the final reaction volume was 25 μL, the final concentration of DnaK was 1.12 μM, the final concentration of DnaJ was 1.96 μM, the final concentration of DMSO was 4%, the final concentration of Triton X-100 was 0.01%, the final concentration of ATP was 1 mM, and the final concentration of sample to be tested was 200 μM), the enzymatic reaction was carried out at 37° C. for 3 h;
4) 80 μL Malachite green staining solution was then added to each well, and was vortexed gently;
5) 10 μL of 34% citrate sodium was then added immediately, and vortexed gently, to stop the ATP hydrolysis not caused by ATPase;
6) the resultant mixture was mixed thoroughly at 37° C. for 15 min, and OD620 was measured.
The inhibitory rate of Hsp70 ATPase activity is calculated in accordance with the following formula: Inhibitory rate (%)=(DMSO well OD−Experimental well OD)/(DMSO well OD−Blank well OD)×100
Criteria for preliminary screening: during preliminary screening, an example compound is regarded as effective in inhibition as long as its inhibitory rate is above 20% for Hsp70 ATPase at 200 μM.

| Compound | inhibition at 200 µM (Hsp70 ATPase) [%] | CDI of example compounds and Lapatinib, BT474 (BT474) | CDI of example compounds and Lapatinib, MDA-MB-361 (MDA-MB-361) | CDI of example compounds and Lapatinib, MDA-MB-453 (MDA-MB-453) | CDI of example compounds and Lapatinib, SK-BR3 (SK-BR3) | CDI of example compounds and Lapatinib, BT/Lap^R1.0 (BT/Lap^R1.0) | CDI of example compounds and Lapatinib, SK/Lap^R1.0 (SK/Lap^R1.0) |
| --- | --- | --- | --- | --- | --- | --- | --- |
| COc1cc(/C=C/C(=O)NC(CC(C)(C)C)NC(=S)Nc2cccnc2)cc(OC)c1OC (stereo not drawn) [Example 33, (2E)-N-[3,3-dimethyl-1-(3-pyridin-3-ylthioureido)butyl]-3-(3,4,5-trimethoxyphenyl) acrylamide] | 47.1 | 0.81 | 0.89 | 1.19 | 0.96 | 0.97 | 0.88 |
| COc1cc(/C=C/C(=O)NC(CC(C)C)NC(=S)Nc2ccccc2)cc(OC)c1OC (stereo not drawn) [Example 24, (2E)-N-[3-methyl-1-(3-phenylthioureido)butyl]-3-(3,4,5-trimethoxyphenyl) acrylamide] | 50.4 | 1.03 | 0.92 | 1.12 | 1.04 | 0.98 | 1 |
| COc1cc(/C=C/C(=O)NC(NC(=S)Nc2cccnc2)C2CC2)cc(OC)c1OC (stereo not drawn) [Example 29, (2E)-N-[cyclopropyl-(3-pyridin-3-ylthioureido)-methyl]-3-(3,4,5-trimethoxyphenyl) acrylamide] | 2.55 | 1.05 | 1 | 1.05 | 0.98 | 0.99 | 1.26 |
| CC(C)CC(NC(=O)/C=C/c1ccccc1)NC(=S)Nc1ccccc1 (stereo not drawn) [Example 38, (2E)-N-[3-methyl-1-(3-phenylthioureido)butyl] cinnamamide] | 2.51 | 0.86 | 1 | 1.21 | 1.16 | 0.93 | 0.93 |

The next lines start with results.

| inhibition at 200 µM (Hsp70 ATPase) [%] | Compound | CDI of example compounds and Lapatinib, BT474 (BT474) | CDI of example compounds and Lapatinib, MDA-MB-361 (MDA-MB-361) | CDI of example compounds and Lapatinib, MDA-MB-453 (MDA-MB-453) | CDI of example compounds and Lapatinib, SK-BR3 (SK-BR3) | CDI of example compounds and Lapatinib, BT/Lap^R1.0 (BT/Lap^R1.0) | CDI of example compounds and Lapatinib, SK/Lap^R1.0 (SK/Lap^R1.0) |
| --- | --- | --- | --- | --- | --- | --- | --- |
| 18.4 | CC(C)(C)CC(NC(=O)/C=C/c1ccccc1)NC(=S)Nc1ccccc1 (stereo not drawn) [Example 39, (2E)-N-[3,3-dimethyl-1-(3-phenylthioureido)butyl] cinnamamide] | 0.79 | 0.92 | 1.2 | 1.2 | 1.19 | 0.95 |
| 22.5 | O=C(/C=C/c1ccccc1)NC(NC(=S)Nc1ccccc1)C1CC1 (stereo not drawn) [Example 41] | 0.91 | 0.91 | 1.07 | 1.09 | 0.99 | 1.02 |
